Ends that are not written are not given here. Peptide text beside a SMILES is read from it.

The test system of series [1] is ARPE-19 cells. Nature of the series: ARPE-19 cell lysis (Sytox Green). As to conditions: 10 μM peptide, 2 h. The class given is cell-based, human. The method, then:
These figures illustrate ARPE-19 cell lysis. ARPE-19 cells were grown in 96-well plates to 75-85% confluence. Peptides at 10 mM were diluted in serum-free DMEM:F12 media into a 20 μM working solution (a 2× solution). Sytox Green was prepared in serum-free DMEM:F12 at a 1 μM working solution (a 2× solution). Equivalent volumes of the peptide and Sytox Green solutions were added to empty 96-well plates and mixed gently. Final peptide concentration was 10 μM. ARPE-19 cells (˜80% confluent in 96-well plates) were washed with DPBS and then incubated in 100 μL of peptide/Sytox Green mixture for 2 h at 37° C. Cells were fixed in 4% paraformaldehyde solution in DPBS and then incubated in 10 μM Hoechst solution for 10 min, washed, and imaged on a Yokogawa CQ1 high-content imager. CellPathfinder software was used to count live/dead cells in 4 fields of view at 20× magnification. Percent (%) lysis was calculated by dividing the number of Sytox Green+ nuclei by the total number of Hoechst+ nuclei.
ARPE-19 cells were grown in 96-well plates to 75-85% confluence. Peptides at 10 mM were diluted in serum-free DMEM: F12 media to solutions between […]. Sytox Green was prepared in serum-free DMEM: F12 media at a 1 μM working solution. Equivalent volumes of the peptide and Sytox Green solutions were added to empty 96-well plates and mixed gently. Final peptide concentration was 3.16-100 μM. ARPE-19 cells (˜80% confluent in 96-well plates) were washed with DPBS and then incubated in 100 μL of peptide/Sytox Green mixture for 2 h at 37° C. Cells were fixed in 4% paraformaldehyde solution in DPBS and then incubated in 10 μM Hoechst solution for 10 min, washed, and imaged on a Yokogawa CQ1 high-content imager. CellPathfinder software was used to count live/dead cells in 4 fields of view at 20× magnification. Percent (%) lysis was calculated by dividing the number of Sytox Green+ nuclei by the total number of Hoechst+ nuclei. Non-linear regression was used to calculate EC50 values.

Series [2] has as its system C57BL/6J mice. Nature of the series: tolerability testing in mice after intravitreal injection (H&E histopathology). It counts as in vivo, mouse. The conditions noted are these: IVT, 520 μM, seven days. From the text:
Seven days following IVT injection, eyes were harvested and prepared for hematoxylin and eosin staining. A blinded veterinarian performed histopathological analysis of tissue slices to determine whether the peptides induced inflammation or retinal disruption.

The target of series [3] is T1, LDLR (Homo sapiens, UniProt P01130). Put plainly: LDLR binding (SPR), high surfactant preparation. In a few lines:
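Surface plasmon resonance with recombinant LDLR amine-coupled to a CM5 chip at 1000 RU. Peptides, 5 μM top concentration then 1:3 dilutions (5 levels) in HBS-P+ with 1 mM CaCl2, injected 120 seconds at 30 μL/sec; multi-cycle kinetics fitted to a 1:1 binding model.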

A short description of series [4]: DMPC solubility assay, 0.5 mM DMPC (turbidity reduction). It counts as biochemical. The conditions noted are these: FIGS. 2A-2D and 3A-3C. The method, then:
In this example, peptide stocks were diluted to 200 μM in H2O (a 2× solution) and 50 μL of peptide solution was transferred in triplicate into 96-well plates. A one mM solution of 1,2-dimyristoyl-sn-glycero-3-phosphocholine (DMPC) in H2O was prepared, and using a multichannel pipet, 50 μL DMPC solution was rapidly added to the plate. Peptide and lipid solutions were incubated at room temperature for 15 minutes with a final concentration of 100 μM peptides and 0.5 mM DMPC. After 15 minutes, absorbance was read on a plate reader at 405 nm. […] Data are presented as mean+SD over two runs.
In these experiments, DMPC solubility titration curves were generated. Peptide stocks were diluted to 200 μM in H2O (a 2× solution) and serially diluted in H2O over 4 concentrations, then 50 μL of peptide solutions were distributed in triplicate into 96-well plates. A 1 mM solution of 1,2-dimyristoyl-sn-glycero-3-phosphocholine (DMPC) in H2O was prepared, and using a multichannel pipet, 50 μL DMPC solution was rapidly added to the plate. Peptide and lipid solutions were incubated at room temperature for 15 minutes with final concentrations of 3.16-100 μM peptides and 0.5 mM DMPC. After 15 minutes, absorbance was read on a plate reader at 405 nm. […] Data are presented as mean+SD over two runs. Non-linear regression was used to calculate EC50 values.

The target in series [5] is T1, LDLR. Nature of the series: lipid-dependent LDLR binding (SPR), single concentration. As to conditions: 1 μM peptide with or without 25 μM DMPC. The method, then: Peptides were diluted in 1×HBS-N buffer with 1 mM CaCl2 to a final concentration of 1 μM and incubated with or without 25 μM DMPC for 1 hour at RT to form lipid complexes. Each peptide was tested in duplicate. LDLR was diluted to 10 μg/mL in 10 mM acetate buffer pH 4.5 and was immobilized (˜400RU) on a CM5 chip via amine coupling utilizing 1×HBS-P+ buffer with 1 mM CaCl2. Test peptides (with or without DMPC) were exposed to immobilized LDLR at a flow rate of […] for 120 seconds in HBS-N with 1 mM CaCl2. Between cycles the surface was regenerated with 3, 30 second injections of 10 mM NaOH and 100 mM EDTA. Data are plotted as max RU values, averaged from three separate runs.

Series [6] can be described thus: peptide binding to non-oxidized and oxidized lipids (SPR). The conditions noted are these: immobilized peptide; RU normalized to DMPC. The method, then:
FIGS. 25A-25O show peptide binding activity to non-oxidized and oxidized lipids via SPR for indicated peptides. Peptides were reconstituted to 50 μg/mL in 10 mM acetate buffer, pH 4.5 and immobilized to ˜200 RU on a CM5 chip via amine coupling. Non-oxidized lipids (DMPC & POPC) and oxidized lipids (POVPC & KOdiA-PC) were diluted to 100 µM in HBS-EP running buffer and exposed to the chip for binding (n=3) at a flow rate of […] for 120 seconds. The surface was regenerated with 20% EtOH. T-001 served as a positive control and T-031 served as a negative control on each chip. For each peptide, the RU response for all lipids was normalized to the DMPC RU values.

In series [7] the test system is HepG2 cells. Put plainly: HepG2 GAG dependent cholesterol import (with or without heparin). The class given is cell-based. The conditions noted are these: HepG2, 10 μM peptide, with or without 100 μg/mL heparin. The method, then:
HepG2 cells were seeded on 96-well plates at 10,000 cells per well and grown to confluence. A 2× solution of 500 μM DMPC and 50 μM BODIPY-Cholesterol with or without 100 μg/mL heparin was prepared in serum free EMEM. Peptides were diluted to 20 μM in serum-free EMEM (a 2× solution). Peptides were added to lipid solution in equal parts (60 μL each) and incubated for 1 hour at 37° C. HepG2 cells were serum starved in serum-free EMEM for 1 hour at 37° C. Peptide: Lipid complexes (100 μL total volume per well) were transferred to HepG2 cells for 2 hours at 37° C. Cells were washed, fixed, and intracellular fluorescence was read on Promega GloMax at 475 nm excitation, 500-550 emission. Fluorescence values were background corrected from no treatment conditions. Data are presented ±SD for 2 runs.

T1 sequence (P01130 22-860): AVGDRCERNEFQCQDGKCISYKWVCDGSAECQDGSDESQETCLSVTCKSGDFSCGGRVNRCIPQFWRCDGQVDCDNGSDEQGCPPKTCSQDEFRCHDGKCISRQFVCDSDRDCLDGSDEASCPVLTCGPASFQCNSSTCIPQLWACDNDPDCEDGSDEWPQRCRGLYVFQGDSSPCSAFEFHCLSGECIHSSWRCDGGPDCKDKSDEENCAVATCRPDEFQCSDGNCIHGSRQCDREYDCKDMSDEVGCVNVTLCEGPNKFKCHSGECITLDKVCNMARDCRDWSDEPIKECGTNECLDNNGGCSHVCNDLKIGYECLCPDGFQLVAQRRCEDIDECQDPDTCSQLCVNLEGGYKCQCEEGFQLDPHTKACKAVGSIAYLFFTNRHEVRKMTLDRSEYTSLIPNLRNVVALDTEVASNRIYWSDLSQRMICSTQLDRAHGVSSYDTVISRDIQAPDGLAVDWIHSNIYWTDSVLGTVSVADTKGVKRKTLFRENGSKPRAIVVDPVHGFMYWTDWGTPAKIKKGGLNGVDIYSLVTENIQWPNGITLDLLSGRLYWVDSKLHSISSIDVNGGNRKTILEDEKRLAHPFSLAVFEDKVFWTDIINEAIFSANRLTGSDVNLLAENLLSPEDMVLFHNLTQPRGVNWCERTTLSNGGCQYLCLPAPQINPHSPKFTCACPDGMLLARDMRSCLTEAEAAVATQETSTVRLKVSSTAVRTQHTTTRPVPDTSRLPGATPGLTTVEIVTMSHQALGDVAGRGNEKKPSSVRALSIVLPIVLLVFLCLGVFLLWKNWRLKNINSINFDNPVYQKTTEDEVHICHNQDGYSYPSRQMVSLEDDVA

For the compound `CC[C@H](C)[C@H](NC(=O)CN)C(=O)N[C@@H](CCCCN)C(=O)N[C@@H](CCCCN)C(=O)N[C@@H](Cc1ccccc1)C(=O)N[C@@H](CC(C)C)C(=O)NCC(=O)N[C@@H](CO)C(=O)N[C@H](C(=O)N[C@@H](Cc1c[nH]c2ccccc12)C(=O)N[C@@H](CCCCN)C(=O)N[C@@H](Cc1ccccc1)C(=O)N[C@H](C(=O)N[C@@H](CCCCN)C(=O)N[C@@H](C)C(=O)N[C@@H](Cc1ccccc1)C(=O)N[C@H](C(=O)NCC(=O)O)C(C)C)[C@@H](C)CC)[C@@H](C)CC` [T-034, reference compound] (H-GIKKFLGSIWKFIKAFVG-OH), the ARPE-19 cell lysis entry in series [1] is on record as “induce cell lysis”.

On to `CC(C)C[C@H](NC(=O)[C@H](C)NC(=O)[C@H](CCCNC(=N)N)NC(=O)[C@H](Cc1ccccc1)NC(=O)[C@H](CCCNC(=N)N)NC(=O)[C@H](CCC(=O)O)NC(=O)[C@H](Cc1c[nH]c2ccccc12)NC(=O)[C@H](C)NC(=O)[C@@H](N)CC(=O)O)C(=O)N[C@@H](Cc1ccccc1)C(=O)N[C@@H](CCCCN)C(=O)N[C@@H](CCC(=O)O)C(=O)N[C@@H](CC(C)C)C(=O)N[C@@H](C)C(=O)N[C@@H](CC(=O)O)C(=O)N[C@@H](Cc1ccc(O)cc1)C(=O)N[C@@H](Cc1ccccc1)C(=O)N[C@@H](CCCNC(=N)N)C(=O)O` [T-087] (H-DAWERFRALFKELADYFR-OH; N-terminus and C-terminus assumed), for which, in series [2], the “in vivo tolerability (inflammation or retinal disruption)” value (shortened to “in vivo tolerability”) is on record as “well tolerated”.

Turning to `CC[C@H](C)[C@H](NC(=O)[C@H](Cc1ccccc1)NC(=O)[C@H](CCCNC(=N)N)NC(=O)[C@H](CCCCN)NC(=O)[C@H](CC(C)C)NC(=O)[C@H](CCC(=O)O)NC(=O)[C@H](CCCCN)NC(=O)[C@H](CC(C)C)NC(=O)[C@H](C)NC(=O)[C@H](CO)NC(=O)[C@H](CCC(=O)O)NC(=O)[C@H](CC(C)C)NC(=O)[C@H](C)NC(=O)[C@H](CC(=O)O)NC(=O)[C@H](C)NC(=O)CNC(=O)[C@H](CO)NC(=O)[C@@H](N)CCCNC(=N)N)C(=O)N[C@@H](CCCNC(=N)N)C(=O)N[C@@H](CCC(=O)O)C(=O)N[C@@H](Cc1c[nH]c2ccccc12)C(=O)N[C@H](C(=O)O)[C@@H](C)O` [T-101] (H-RSGADALESALKELKRFIREWT-OH; N-terminus and C-terminus assumed), the “in vivo tolerability” value in series [2] is “well tolerated”.

The Kd is the equilibrium constant for the complex coming apart. “LKDFGERVARALREQFEDLGQSTEELRVRLASHLRKLRKRLLRDADDLQKRLAVYQA [T-114]”: in series [3], the dissociation constant (Kd) is under 10 µM. The “in vivo tolerability” value in series [2] is “well tolerated”.

Take “T-007: therapeutic peptide (EELRVRLASHLRKLRKRLLRDADDLQKRLAVYQA)”: the DMPC solubilizing activity entry in series [4] was “significant activity”. The “lipid-dependent LDLR binding (RU with lipid vs peptide alone)” value in series [5] is recorded as “lipid-dependent LDLR binding activity”.

As to “T-009: therapeutic peptide (EELRVRLASHLRKLRKRLLRDADDLQKRLAVYQAGAREGAERGLSAIRER)”, the DMPC solubilizing activity entry in series [4] was “significant activity”. Besides, in series [5], the “lipid-dependent LDLR binding (RU with lipid vs peptide alone)” value is given as “lipid-dependent LDLR binding activity”. Further, in series [6], the “binding to oxidized lipids relative to DMPC” value was “binding to at least one oxidized lipid that was equivalent or improved to binding against DMPC”.

Turning to “T-018: therapeutic peptide (HLRKLRKRLLRPPEQAQQIRLQAEAFQARLKSWFE)”, the DMPC solubilizing activity entry in series [4] is “significant activity”. The “lipid-dependent LDLR binding (RU with lipid vs peptide alone)” value in series [5] was “lipid-dependent LDLR binding activity”.

In the case of “T-029: therapeutic peptide (HLRKLRKRLLRDGDKLCDRLAEYCARAKEAFDR)”, in series [4], the DMPC solubilizing activity entry was “significant activity”. For the same compound, the “GAG dependence of cholesterol import” value in series [7] is “rely on GAG binding for cholesterol import activity”. Moreover, the “lipid-dependent LDLR binding (RU with lipid vs peptide alone)” value in series [5] is listed as “lipid-dependent LDLR binding activity”. Further, in series [6], the “binding to oxidized lipids relative to DMPC” value is “binding to at least one oxidized lipid that was equivalent or improved to binding against DMPC”.

In the case of “T-030: therapeutic peptide (EHLCELIERACRKLVELQEKLSKWLIAELGEGWRQWLHSLKEFLS)”, the DMPC solubilizing activity entry in series [4] is listed as “significant activity”. In addition, the “binding to oxidized lipids relative to DMPC” value in series [6] is reported as “binding to at least one oxidized lipid that was equivalent or improved to binding against DMPC”.

In series [3], “YKDFGERVERALGRQLEMLGQSTEELRVRLASHLRKLRKRLLRDADDLQKRLAVYQA [T-112]” registered a dissociation constant Kd of under 10 µM. The “in vivo tolerability” value in series [2] was “all peptides except T-112 were well tolerated”.

The record behind these values is patent publication US20260115250A1, “METHODS OF TREATING AGE-RELATED MACULAR DEGENERATION” (Character Biosciences, Inc., priority 2022, published 2026).
